Structures are written as SMILES.

One data set is described as follows: The drug is tested on Bacteroides cellulosilyticus strain: DSM14838 for biotransformation. The drug concentrations were measured before and after a 12-h incubation by liquid-chromatography-coupled mass spectrometry (LC–MS). The settings on record: 2 µM.
Consider `C[C@@H](CO)NC(=O)[C@@H]1C=C2c3cccc4[nH]cc(c34)C[C@H]2N(C)C1.O=C(O)/C=C\C(=O)O` [ERGONOVINE MALEATE], for which the “Bacterial Biotransformation” value is reported as “Compound metabolized”.

`CCN(CC)CCCC(C)Nc1c2ccc(Cl)cc2nc2ccc(OC)cc12` (centres undefined) [QUINACRINE]: the “Bacterial Biotransformation” value is given as “Compound NOT metabolized”.

On to `CCCN(CCC)CCc1cccc2c1CC(=O)N2` [ROPINIROLE], for which the “Bacterial Biotransformation” value was “Compound NOT metabolized”.

A further data set in a line: The drug is tested on Clostridium symbiosum strain: ATCC14940 for biotransformation. The drug concentrations were measured before and after a 12-h incubation by liquid-chromatography-coupled mass spectrometry (LC–MS). The conditions noted are these: 2 µM.
In the case of `C[C@@H](CO)NC(=O)[C@@H]1C=C2c3cccc4[nH]cc(c34)C[C@H]2N(C)C1.O=C(O)/C=C\C(=O)O` [ERGONOVINE MALEATE], the “Bacterial Biotransformation” value was “Compound metabolized”.

As to `CCCN(CCC)CCc1cccc2c1CC(=O)N2` [ROPINIROLE], the “Bacterial Biotransformation” value was “Compound NOT metabolized”.

The conditions of another data set: parabacteroides distasonis, 12 h, 2 µM.
Description: The drug is tested on Parabacteroides distasonis strain: ATCC8503 for biotransformation. The drug concentrations were measured before and after a 12-h incubation by liquid-chromatography-coupled mass spectrometry (LC–MS)
Turning to `CCN(CC)CCCC(C)Nc1c2ccc(Cl)cc2nc2ccc(OC)cc12` (centres undefined) [QUINACRINE], the “Bacterial Biotransformation” value is listed as “Compound NOT metabolized”.

Another data set is described as follows: The drug is tested on Bacteroides finegoldii strain: DSM17565 for biotransformation. The drug concentrations were measured before and after a 12-h incubation by liquid-chromatography-coupled mass spectrometry (LC–MS). The settings on record: 2 µM.
As for `C[C@@H](CO)NC(=O)[C@@H]1C=C2c3cccc4[nH]cc(c34)C[C@H]2N(C)C1.O=C(O)/C=C\C(=O)O` [ERGONOVINE MALEATE], the “Bacterial Biotransformation” value is given as “Compound NOT metabolized”.

On to `CCN(CC)CCCC(C)Nc1c2ccc(Cl)cc2nc2ccc(OC)cc12` (centres undefined) [QUINACRINE], for which the “Bacterial Biotransformation” value is “Compound NOT metabolized”.

As to `CCCN(CCC)CCc1cccc2c1CC(=O)N2` [ROPINIROLE], the “Bacterial Biotransformation” value was “Compound NOT metabolized”.

Another data set can be described thus: The drug is tested on Subdoligranulum variabile strain: DSM15176 for biotransformation. The drug concentrations were measured before and after a 12-h incubation by liquid-chromatography-coupled mass spectrometry (LC–MS). The settings on record: 2 µM.
As to `C[C@@H](CO)NC(=O)[C@@H]1C=C2c3cccc4[nH]cc(c34)C[C@H]2N(C)C1.O=C(O)/C=C\C(=O)O` [ERGONOVINE MALEATE], the “Bacterial Biotransformation” value is reported as “Compound NOT metabolized”.

Consider `CCN(CC)CCCC(C)Nc1c2ccc(Cl)cc2nc2ccc(OC)cc12` (centres undefined) [QUINACRINE], for which the “Bacterial Biotransformation” value was “Compound NOT metabolized”.

Consider `CCCN(CCC)CCc1cccc2c1CC(=O)N2` [ROPINIROLE], for which the “Bacterial Biotransformation” value is “Compound NOT metabolized”.

A further data set can be described thus: The drug is tested on Eubacterium hallii strain: DSM3353 for biotransformation. The drug concentrations were measured before and after a 12-h incubation by liquid-chromatography-coupled mass spectrometry (LC–MS). The settings on record: anaerobutyricum hallii, 2 µM.
As for `CCN(CC)CCCC(C)Nc1c2ccc(Cl)cc2nc2ccc(OC)cc12` (centres undefined) [QUINACRINE], the “Bacterial Biotransformation” value is recorded as “Compound NOT metabolized”.

Turning to `CCCN(CCC)CCc1cccc2c1CC(=O)N2` [ROPINIROLE], the “Bacterial Biotransformation” value is on record as “Compound NOT metabolized”.

The nature of another data set: The drug is tested on Blautia luti strain: DSM14534 for biotransformation. The drug concentrations were measured before and after a 12-h incubation by liquid-chromatography-coupled mass spectrometry (LC–MS). The format is ADME. Also noted: dose 2 uM, timepoint 0 vs 12 hours. The settings on record: 2 µM.
With `C[C@@H](CO)NC(=O)[C@@H]1C=C2c3cccc4[nH]cc(c34)C[C@H]2N(C)C1.O=C(O)/C=C\C(=O)O` [ERGONOVINE MALEATE], the “Bacterial Biotransformation” value is on record as “Compound NOT metabolized”.

Regarding `CCN(CC)CCCC(C)Nc1c2ccc(Cl)cc2nc2ccc(OC)cc12` (centres undefined) [QUINACRINE], the “Bacterial Biotransformation” value is on record as “Compound NOT metabolized”.

As to `CCCN(CCC)CCc1cccc2c1CC(=O)N2` [ROPINIROLE], the “Bacterial Biotransformation” value is reported as “Compound NOT metabolized”.

The conditions of a further data set: bacteroides thetaiotaomicron, 12 h, 2 µM.
Description: The drug is tested on Bacteroides thetaiotaomicron strain: VPI-5482 for biotransformation. The drug concentrations were measured before and after a 12-h incubation by liquid-chromatography-coupled mass spectrometry (LC–MS)
In the case of `C[C@@H](CO)NC(=O)[C@@H]1C=C2c3cccc4[nH]cc(c34)C[C@H]2N(C)C1.O=C(O)/C=C\C(=O)O` [ERGONOVINE MALEATE], the “Bacterial Biotransformation” value is “Compound metabolized”.

For the compound `CCN(CC)CCCC(C)Nc1c2ccc(Cl)cc2nc2ccc(OC)cc12` (centres undefined) [QUINACRINE], the “Bacterial Biotransformation” value is listed as “Compound NOT metabolized”.

A short description of the next data set: The drug is tested on Bacteroides ovatus strain: ATCC8483 for biotransformation. The drug concentrations were measured before and after a 12-h incubation by liquid-chromatography-coupled mass spectrometry (LC–MS). The conditions noted are these: 2 µM.
With `C[C@@H](CO)NC(=O)[C@@H]1C=C2c3cccc4[nH]cc(c34)C[C@H]2N(C)C1.O=C(O)/C=C\C(=O)O` [ERGONOVINE MALEATE], the “Bacterial Biotransformation” value is “Compound metabolized”.

On to `CCN(CC)CCCC(C)Nc1c2ccc(Cl)cc2nc2ccc(OC)cc12` (centres undefined) [QUINACRINE], for which the “Bacterial Biotransformation” value is given as “Compound NOT metabolized”.

As to `CCCN(CCC)CCc1cccc2c1CC(=O)N2` [ROPINIROLE], the “Bacterial Biotransformation” value is “Compound NOT metabolized”.

The nature of the next data set: The drug is tested on Bacteroides fragilis strain: ATCC43859 for biotransformation. The drug concentrations were measured before and after a 12-h incubation by liquid-chromatography-coupled mass spectrometry (LC–MS). The settings on record: 2 µM.
As to `C[C@@H](CO)NC(=O)[C@@H]1C=C2c3cccc4[nH]cc(c34)C[C@H]2N(C)C1.O=C(O)/C=C\C(=O)O` [ERGONOVINE MALEATE], the “Bacterial Biotransformation” value was “Compound metabolized”.

For `CCN(CC)CCCC(C)Nc1c2ccc(Cl)cc2nc2ccc(OC)cc12` (centres undefined) [QUINACRINE], the “Bacterial Biotransformation” value is on record as “Compound NOT metabolized”.

On to `CCCN(CCC)CCc1cccc2c1CC(=O)N2` [ROPINIROLE], for which the “Bacterial Biotransformation” value is “Compound NOT metabolized”.

Another data set in a line: The drug is tested on Escherichia coli strain: BW25113 for biotransformation. The drug concentrations were measured before and after a 12-h incubation by liquid-chromatography-coupled mass spectrometry (LC–MS). The conditions noted are these: 2 µM.
Turning to `C[C@@H](CO)NC(=O)[C@@H]1C=C2c3cccc4[nH]cc(c34)C[C@H]2N(C)C1.O=C(O)/C=C\C(=O)O` [ERGONOVINE MALEATE], the “Bacterial Biotransformation” value is given as “Compound NOT metabolized”.

For the compound `CCN(CC)CCCC(C)Nc1c2ccc(Cl)cc2nc2ccc(OC)cc12` (centres undefined) [QUINACRINE], the “Bacterial Biotransformation” value was “Compound NOT metabolized”.

For `CCCN(CCC)CCc1cccc2c1CC(=O)N2` [ROPINIROLE], the “Bacterial Biotransformation” value was “Compound NOT metabolized”.

For another data set the following is noted: bacteroides fragilis, 12 h, 2 µM.
Description: The drug is tested on Bacteroides fragilis strain: DS-208 for biotransformation. The drug concentrations were measured before and after a 12-h incubation by liquid-chromatography-coupled mass spectrometry (LC–MS)
As for `C[C@@H](CO)NC(=O)[C@@H]1C=C2c3cccc4[nH]cc(c34)C[C@H]2N(C)C1.O=C(O)/C=C\C(=O)O` [ERGONOVINE MALEATE], the “Bacterial Biotransformation” value is “Compound metabolized”.

Regarding `CCN(CC)CCCC(C)Nc1c2ccc(Cl)cc2nc2ccc(OC)cc12` (centres undefined) [QUINACRINE], the “Bacterial Biotransformation” value is recorded as “Compound NOT metabolized”.

For `CCCN(CCC)CCc1cccc2c1CC(=O)N2` [ROPINIROLE], the “Bacterial Biotransformation” value is given as “Compound NOT metabolized”.

The nature of a further data set: The drug is tested on Clostridium scindens strain: ATCC35704 for biotransformation. The drug concentrations were measured before and after a 12-h incubation by liquid-chromatography-coupled mass spectrometry (LC–MS). The settings on record: 2 µM.
`C[C@@H](CO)NC(=O)[C@@H]1C=C2c3cccc4[nH]cc(c34)C[C@H]2N(C)C1.O=C(O)/C=C\C(=O)O` [ERGONOVINE MALEATE]: the “Bacterial Biotransformation” value was “Compound metabolized”.

Turning to `CCCN(CCC)CCc1cccc2c1CC(=O)N2` [ROPINIROLE], the “Bacterial Biotransformation” value is recorded as “Compound NOT metabolized”.

A further data set in a line: The drug is tested on Bifidobacterium breve strain: DSM20213 for biotransformation. The drug concentrations were measured before and after a 12-h incubation by liquid-chromatography-coupled mass spectrometry (LC–MS). The conditions noted are these: 2 µM.
`CCN(CC)CCCC(C)Nc1c2ccc(Cl)cc2nc2ccc(OC)cc12` (centres undefined) [QUINACRINE]: the “Bacterial Biotransformation” value is on record as “Compound NOT metabolized”.

Turning to `CCCN(CCC)CCc1cccc2c1CC(=O)N2` [ROPINIROLE], the “Bacterial Biotransformation” value is “Compound NOT metabolized”.

The next data set in a line: The drug is tested on Eubacterium rectale strain: ATCC33656 for biotransformation. The drug concentrations were measured before and after a 12-h incubation by liquid-chromatography-coupled mass spectrometry (LC–MS). The settings on record: agathobacter rectalis, 2 µM.
For `C[C@@H](CO)NC(=O)[C@@H]1C=C2c3cccc4[nH]cc(c34)C[C@H]2N(C)C1.O=C(O)/C=C\C(=O)O` [ERGONOVINE MALEATE], the “Bacterial Biotransformation” value is “Compound NOT metabolized”.

The conditions of the next data set: bacteroides fragilis, 12 h, 2 µM. This is another data set of the same source.
Description: The drug is tested on Bacteroides fragilis strain: NCTC 9343 for biotransformation. The drug concentrations were measured before and after a 12-h incubation by liquid-chromatography-coupled mass spectrometry (LC–MS)
In the case of `C[C@@H](CO)NC(=O)[C@@H]1C=C2c3cccc4[nH]cc(c34)C[C@H]2N(C)C1.O=C(O)/C=C\C(=O)O` [ERGONOVINE MALEATE], the “Bacterial Biotransformation” value was “Compound metabolized”.

As for `CCN(CC)CCCC(C)Nc1c2ccc(Cl)cc2nc2ccc(OC)cc12` (centres undefined) [QUINACRINE], the “Bacterial Biotransformation” value is recorded as “Compound NOT metabolized”.

As to `CCCN(CCC)CCc1cccc2c1CC(=O)N2` [ROPINIROLE], the “Bacterial Biotransformation” value is “Compound NOT metabolized”.

For another data set the following is noted: bacteroides thetaiotaomicron, 12 h, 2 µM. This is another data set of the same source.
Description: The drug is tested on Bacteroides thetaiotaomicron strain: 3731 for biotransformation. The drug concentrations were measured before and after a 12-h incubation by liquid-chromatography-coupled mass spectrometry (LC–MS)
For `C[C@@H](CO)NC(=O)[C@@H]1C=C2c3cccc4[nH]cc(c34)C[C@H]2N(C)C1.O=C(O)/C=C\C(=O)O` [ERGONOVINE MALEATE], the “Bacterial Biotransformation” value is recorded as “Compound NOT metabolized”.

In the case of `CCN(CC)CCCC(C)Nc1c2ccc(Cl)cc2nc2ccc(OC)cc12` (centres undefined) [QUINACRINE], the “Bacterial Biotransformation” value is recorded as “Compound NOT metabolized”.

A short description of another data set: The drug is tested on Enterobacter cancerogenus strain: ATCC35316 for biotransformation. The drug concentrations were measured before and after a 12-h incubation by liquid-chromatography-coupled mass spectrometry (LC–MS). The conditions noted are these: 2 µM.
As to `C[C@@H](CO)NC(=O)[C@@H]1C=C2c3cccc4[nH]cc(c34)C[C@H]2N(C)C1.O=C(O)/C=C\C(=O)O` [ERGONOVINE MALEATE], the “Bacterial Biotransformation” value is on record as “Compound metabolized”.

Take `CCN(CC)CCCC(C)Nc1c2ccc(Cl)cc2nc2ccc(OC)cc12` (centres undefined) [QUINACRINE]: the “Bacterial Biotransformation” value is “Compound NOT metabolized”.

Consider `CCCN(CCC)CCc1cccc2c1CC(=O)N2` [ROPINIROLE], for which the “Bacterial Biotransformation” value is recorded as “Compound NOT metabolized”.

The record behind these values is ChEMBL document CHEMBL5303573, “Mapping human microbiome drug metabolism by gut bacteria and their genes” (Nature, 2019).
